Measured values taken from US10617680B2 (CELGENE QUANTICEL RESEARCH, INC., priority 2017, dated 2020).
pIC50: −log10 of the molar value.

Biological target: CBP (Homo sapiens (Human), UniProt Q92793)
Assay: In vitro CBP inhibition (AlphaScreen, biotinylated H4-tetraacetyl peptide)
Type: binding
Conditions: AlphaScreen, Table 29; read-out: CBP IC50
Outline: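 His-tagged CBP expressed in E. coli (50 nM final) incubated with biotinylated H4K5/8/12/16(Ac) peptide (20 nM final) in 50 mM HEPES pH 7.3, 10 mM NaCl, 0.25 mM TCEP, 0.1% BSA, 0.005% Brij-35, 0.4% DMSO, 20 min at room temp.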

Sequence of CBP (Q92793 1081-1197): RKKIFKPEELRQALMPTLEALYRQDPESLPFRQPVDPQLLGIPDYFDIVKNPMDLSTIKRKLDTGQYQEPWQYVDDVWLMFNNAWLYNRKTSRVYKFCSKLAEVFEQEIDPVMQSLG

SMILES | pIC50
Cn1cc(-c2cnn(-c3ccccc3C#N)c2)c(-c2cccc(Cl)c2)cc1=O [Example 216, 2-{4-[4-(3-Chloro-phenyl)-1-methyl-6-oxo-1,6-dihydro-pyridin-3-yl]-pyrazol-1-yl}-benzonitrile] | > 6.30
Cn1cc(-c2cnn(-c3ccccc3C#N)c2)c(-c2ccc(C(=O)O)cc2)cc1=O [Example 217, 4-{5-[1-(2-Cyano-phenyl)-1H-pyrazol-4-yl]-1-methyl-2-oxo-1,2-dihydro-pyridin-4-yl}-benzoic acid] | > 6.30
Cn1cc(-c2cnn(-c3ccccc3C#N)c2)c(-c2ccc(C(N)=O)cc2)cc1=O [Example 218, 4-{5-[1-(2-Cyano-phenyl)-1H-pyrazol-4-yl]-1-methyl-2-oxo-1,2-dihydro-pyridin-4-yl}-benzamide] | > 6.30
CNC(=O)c1ccc(-c2cc(=O)n(C)cc2-c2cnn(-c3ccccc3C#N)c2)cc1 [Example 219, 4-{5-[1-(2-Cyano-phenyl)-1H-pyrazol-4-yl]-1-methyl-2-oxo-1,2-dihydro-pyridin-4-yl}-N-methyl-benzamide] | > 6.30
Cn1ccc(-c2cc(=O)n(C)cc2-c2cnn(-c3ccccc3C#N)c2)cc1=O [Example 221, 2-[4-(1,1′-Dimethyl-6,2′-dioxo-1,6,1′,2′-tetrahydro-[4,4′]bipyridinyl-3-yl)-pyrazol-1-yl]-benzonitrile] | > 6.30
Cn1cc(-c2cnn(-c3ccccc3C#N)c2)c(-c2ccn(C3CC3)c(=O)c2)cc1=O [Example 222, 2-[4-(1′-Cyclopropyl-1-methyl-6,2′-dioxo-1,6,1′,2′-tetrahydro-[4,4′]bipyridinyl-3-yl)-pyrazol-1-yl]-benzonitrile] | > 6.30
Cc1ccc(-c2cc(=O)n(C)cc2-c2cnn(-c3ccccc3C(=O)O)c2)cc1 [Example 224, 2-[4-(1-Methyl-6-oxo-4-p-tolyl-1,6-dihydro-pyridin-3-yl)-pyrazol-1-yl]-benzoic acid] | > 6.30
Cn1cc(-c2cnn(-c3ccccc3C(=O)O)c2)c(-c2ccc(F)cc2)cc1=O [Example 226, 2-{4-[4-(4-Fluoro-phenyl)-1-methyl-6-oxo-1,6-dihydro-pyridin-3-yl]-pyrazol-1-yl}-benzoic acid] | > 6.30
Cn1cc(-c2cnn(-c3ccccc3C(=O)O)c2)c(-c2cccnc2)cc1=O [Example 227, 2-[4-(1′-Methyl-6′-oxo-1′,6′-dihydro-[3,4′]bipyridinyl-3′-yl)-pyrazol-1-yl]-benzoic acid] | > 6.30
COc1ccc(-c2cc(=O)n(C)cc2-c2cnn(-c3ccccc3C(=O)O)c2)cn1 [Example 228, 2-[4-(6-Methoxy-1′-methyl-6′-oxo-1′,6′-dihydro-[3,4′]bipyridinyl-3′-yl)-pyrazol-1-yl]-benzoic acid] | > 6.30
CCOc1ccc(-c2cc(=O)n(C)cc2-c2cnn(-c3ccccc3C(=O)O)c2)cn1 [Example 230, 2-[4-(6-Ethoxy-1′-methyl-6′-oxo-1′,6′-dihydro-[3,4′]bipyridinyl-3′-yl)-pyrazol-1-yl]-benzoic acid] | > 6.30
CC(C)Oc1ccc(-c2cc(=O)n(C)cc2-c2cnn(-c3ccccc3C(=O)O)c2)cn1 [Example 231, 2-[4-(6-Isopropoxy-1′-methyl-6′-oxo-1′,6′-dihydro-[3,4′]bipyridinyl-3′-yl)-pyra.zol-1-yl]-benzoic acid] | > 6.30
CC(C)COc1ccc(-c2cc(=O)n(C)cc2-c2cnn(-c3ccccc3C(=O)O)c2)cn1 [Example 232, 2-[4-(6-Isobutoxy-1′-methyl-6′-oxo-1′,6′-dihydro-[3,4′]bipyridinyl-3′-yl)-pyrazol-1-yl]-benzoic acid] | > 6.30
CC(C)COc1ccc(-c2cc(=O)n(C)cc2-c2cnn(-c3ccccc3C#N)c2)cn1 [Example 236, 2-[4-(6-Isobutoxy-1′-methyl-6′-oxo-1′,6′-dihydro-[3,4′]bipyridinyl-3′-yl)-pyrazol-1-yl]-benzonitrile] | > 6.30
Cc1cc(-c2cc(=O)n(C)cc2-c2cnn(-c3ccccc3C#N)c2)cn(C)c1=O [Example 239, 2-(4-(1,1′,5-trimethyl-6,6′-dioxo-1,1′,6,6′-tetrahydro-[3,4′-bipyridin]-3′-yl)-1H-pyrazol-1-yl)benzonitrile] | > 6.30
Cn1cc(-c2cnn(-c3ccccc3C#N)c2)c(-c2c[nH]c(=O)c(F)c2)cc1=O [Example 240, 2-(4-(5-fluoro-1′-methyl-6,6′-dioxo-1,1′,6,6′-tetrahydro-[3,4′-bipyridin]-3′-yl)-1H-pyrazol-1-yl)benzonitrile] | > 6.30

More lines, now with the values ahead:

pIC50 | SMILES
> 6.30 | COc1cc(-c2cc(=O)n(C)cc2-c2cnn(-c3ccccc3C#N)c2)ccn1 [Example 220, 2-[4-(2′-Methoxy-1-methyl-6-oxo-1,6-dihydro-[4,4′]bipyridinyl-3-yl)-pyrazol-1-yl]-benzonitrile]
> 6.30 | CCOc1ccc(-c2cc(=O)n(C)cc2-c2cnn(-c3ccccc3C#N)c2)cn1 [Example 234, 2-[4-(6-Ethoxy-1′-methyl-6′-oxo-1′,6′-dihydro-[3,4′]bipyridinyl-3′-yl)-pyrazol-1-yl]-benzonitrile]
> 6.30 | CC(C)Oc1ccc(-c2cc(=O)n(C)cc2-c2cnn(-c3ccccc3C#N)c2)cn1 [Example 235, 2-[4-(6-Isopropoxy-1′-methyl-6′-oxo-1′,6′-dihydro-[3,4′]bipyridinyl-3′-yl)-pyrazol-1-yl]-benzonitrile]
> 6.30 | Cn1cc(-c2cnn(-c3ccccc3C#N)c2)c(-c2cccnc2)cc1=O [Example 237, 2-[4-(1′-Methyl-6′-oxo-1′,6′-dihydro-[3,4′]bipyridinyl-3′-yl)-pyrazol-1-yl]-benzonitrile]
> 6.30 | COc1ccc(-c2cc(=O)n(C)cc2-c2cnn(-c3ccccc3C#N)c2)cn1 [Example 238, 2-(4-(6-methoxy-1′-methyl-6′-oxo-1′,6′-dihydro-[3,4′-bipyridin]-3′-yl)-1H-pyrazol-1-yl)benzonitrile]
> 6.30 | COc1cccc(-c2cc(=O)n(C)cc2-c2cnn(-c3ccccc3C#N)c2)c1 [Example 241, 2-{4-[4-(3-Methoxy-phenyl)-1-methyl-6-oxo-1,6-dihydro-pyridin-3-yl]-pyrazol-1-yl}-benzonitrile]
> 6.30 | COc1cncc(-c2cc(=O)n(C)cc2-c2cnn(-c3ccccc3C#N)c2)c1 [Example 242, 2-(4-(5-methoxy-1′-methyl-6′-oxo-1′,6′-dihydro-[3,4′-bipyridin]-3′-yl)-1H-pyrazol-1-yl)benzonitrile]
> 6.30 | COc1ccc(-c2cc(=O)n(C)cc2-c2cnn(-c3ccccc3C#N)c2)cc1OC [Example 243, 2-(4-(4-(3,4-dimethoxyphenyl)-1-methyl-6-oxo-1,6-dihydropyridin-3-yl)-1H-pyrazol-1-yl)benzonitrile]
> 6.30 | COc1ncc(-c2cc(=O)n(C)cc2-c2cnn(-c3ccccc3C#N)c2)cn1 [Example 244, 2-{4-[4-(2-Methoxy-pyrimidin-5-yl)-1-methyl-6-oxo-1,6-dihydro-pyridin-3-yl]-pyrazol-1-yl}-benzonitrile]
> 6.30 | CNc1ncc(-c2cc(=O)n(C)cc2-c2cnn(-c3ccccc3C#N)c2)cn1 [Example 245, 2-(4-(1-methyl-4-(2-(methylamino)pyrimidin-5-yl)-6-oxo-1,6-dihydropyridin-3-yl)-1H-pyrazol-1-yl)benzonitrile]
